The text below walks through data of patent US20220306695A1, “COMPSTATIN ANALOGUES AND THEIR MEDICAL USES” (priority 2019, published 2022).

Starred links: 1 amine or outer side, 2 acyl side, 3 side chain; linkers in the order of their positions; H or OH if unused. Positions of bridges follow the written chain, without caps; N, C: chain ends. Non-standard residues stand in square brackets, D forms with d. Residues, ends and D or L forms follow the SMILES beside them. Groups on a side chain read outwards from the residue. *: point of attachment. Trp(1-Me) = Cn1cc(C[C@H](N)C(=O)O)c2ccccc21; C16 diacid = O=C(O)CCCCCCCCCCCCCCC(=O)*; γGlu = O=C(O)[C@H](CCC(=O)[*:2])N[*:1]; 2Nal = N[C@@H](Cc1ccc2ccccc2c1)C(=O)O; AEEA = NCCOCCOCC(=O)O; Sar = CNCC(=O)O

Series [1] can be described thus: Solubility test at 10 mg/mL (visual inspection and light scattering). Type of series: physicochemical. Particulars: for Solubility, Condition 1 Acetate pH 4: 10 mg/mL compound in 100 mM acetate pH 4; for Solubility, Condition 2 Acetate pH 5: 10 mg/mL compound in 100 mM acetate pH 5; for Solubility, Condition 3 Phosphate pH 6: 10 mg/mL compound in 100 mM phosphate pH 6; for Solubility, Condition 4 Phosphate pH 7: 10 mg/mL compound in 100 mM phosphate pH 7; for Solubility, Condition 5 Phosphate pH 7.5: 10 mg/mL compound in 100 mM phosphate pH 7.5.

In series [2] the test system is classical complement pathway. In words: In vitro haemolysis assay (inhibition of classical complement pathway). Type of series: cell-based, human. The settings on record: Table 3; human serum, sensitized sheep red blood cells; read-out: IC50[nM], in vitro analysis of inhibition of hemolysis. The gist of the method: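 Serially diluted compound (9 points) was preincubated 15 min at room temperature with diluted human serum, titrated per batch to give 70-90% maximal haemolysis, in Tris/casein buffer pH 7.4 with Mg2+/Ca2+. Antibody-sensitized sheep erythrocytes were then added for 30 min at 37° C, and the reaction was stopped with EDTA. Haemolysis was read at A405, with IC50 from 4PL fit.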

As for `CC[C@H](C)[C@@H]1NC(=O)[C@@H](NC(=O)[C@@H](NC(=O)[C@H](CCC(=O)O)NC(=O)[C@H](CO)NC(=O)[C@H](CCC(=O)O)NC(C)=O)[C@@H](C)CC)CSSC[C@@H](C(=O)N[C@@H](CCC(=O)O)C(=O)NCC(=O)N[C@@H](CCC(=O)O)C(N)=O)NC(=O)[C@H](CCCNC(=N)N)NC(=O)[C@H](Cc2c[nH]cn2)NC(=O)[C@H](CCC(=O)O)NC(=O)CNC(=O)[C@H](Cc2c[nH]c3ccccc23)NC(=O)[C@H](CC(=O)O)NC(=O)[C@H](CCC(N)=O)NC(=O)[C@H](Cc2c[nH]c3ccccc23)NC1=O` [Compound 36] (Ac-ESEICIWQDWGEHRCEGE-NH2; disulfide 5-15), in series [1], the “Solubility, Condition 1 Acetate pH 4” value is “− (denotes lack of solubility at the given condition, as UV absorbance at 340 nm exceeds 0.1 AU and/or it is visibly turbid or contains particles.)”; the “Solubility, Condition 2 Acetate pH 5” value is given as “− (denotes lack of solubility at the given condition, as UV absorbance at 340 nm exceeds 0.1 AU and/or it is visibly turbid or contains particles.)”; the “Solubility, Condition 3 Phosphate pH 6” value is listed as “− (denotes lack of solubility at the given condition, as UV absorbance at 340 nm exceeds 0.1 AU and/or it is visibly turbid or contains particles.)”; the “Solubility, Condition 4 Phosphate pH 7” value is “+ (denotes solubility at the given condition, as determined by UV absorbance being less than 0.1 AU at 340 nm and the sample being clear when manually inspected.)”. The “Solubility, Condition 5 Phosphate pH 7.5” value in series [1] was “+ (denotes solubility at the given condition, as determined by UV absorbance being less than 0.1 AU at 340 nm and the sample being clear when manually inspected.)”. Besides, in series [2], the IC50 (as a rule, the concentration that inhibits the measured activity by half) is under 250 nM.
For `CC[C@H](C)[C@@H]1NC(=O)[C@@H](NC(=O)[C@H](Cc2ccccc2)NC(C)=O)CSSC[C@@H](C(=O)N[C@H](C(=O)NCC(=O)N[C@@H](C)C(=O)N[C@@H](CCC(=O)O)C(=O)N[C@@H](CO)C(=O)N[C@@H](CCCCNC(=O)COCCOCCNC(=O)COCCOCCNC(=O)CC[C@H](NC(=O)CCCCCCCCCCCCCCC(=O)O)C(=O)O)C(N)=O)[C@@H](C)O)NC(=O)[C@H](CCCNC(=N)N)NC(=O)[C@H](Cc2c[nH]cn2)NC(=O)[C@H](CCC(=O)O)NC(=O)CNC(=O)[C@H](Cc2c[nH]c3ccccc23)NC(=O)[C@H](CC(=O)O)NC(=O)[C@H](CCC(N)=O)NC(=O)[C@H](Cc2cn(C)c3ccccc23)NC1=O` [Compound 102] (Ac-FCI[Trp(1-Me)]QDWGEHRCTGAESK([AEEA-AEEA-γGlu-C16 diacid])-NH2; disulfide 2-12), in series [1], the “Solubility, Condition 1 Acetate pH 4” value is given as “− (denotes lack of solubility at the given condition, as UV absorbance at 340 nm exceeds 0.1 AU and/or it is visibly turbid or contains particles.)”; the “Solubility, Condition 2 Acetate pH 5” value is “+ (denotes solubility at the given condition, as determined by UV absorbance being less than 0.1 AU at 340 nm and the sample being clear when manually inspected.)”; the “Solubility, Condition 3 Phosphate pH 6” value is “+ (denotes solubility at the given condition, as determined by UV absorbance being less than 0.1 AU at 340 nm and the sample being clear when manually inspected.)”; the “Solubility, Condition 4 Phosphate pH 7” value was “+ (denotes solubility at the given condition, as determined by UV absorbance being less than 0.1 AU at 340 nm and the sample being clear when manually inspected.)”. Also, the “Solubility, Condition 5 Phosphate pH 7.5” value in series [1] is “+ (denotes solubility at the given condition, as determined by UV absorbance being less than 0.1 AU at 340 nm and the sample being clear when manually inspected.)”. Further, the IC50 in series [2] is under 100 nM.
`CC[C@H](C)[C@@H]1NC(=O)[C@@H](NC(=O)[C@@H](NC(=O)[C@H](CCC(=O)O)NC(=O)[C@H](CO)NC(C)=O)[C@@H](C)CC)CSSC[C@@H](C(=O)N[C@H](C(=O)N[C@@H](CCC(=O)O)C(=O)N[C@@H](C)C(N)=O)[C@@H](C)O)NC(=O)[C@H](CCCNC(=N)N)NC(=O)[C@H](Cc2c[nH]cn2)NC(=O)[C@H](CCC(=O)O)NC(=O)CNC(=O)[C@H](Cc2c[nH]c3ccccc23)NC(=O)[C@H](CC(=O)O)NC(=O)[C@H](CCC(N)=O)NC(=O)[C@H](Cc2c[nH]c3ccccc23)NC1=O` [Compound 32] (Ac-SEICIWQDWGEHRCTEA-NH2; disulfide 4-14): in series [1], the “Solubility, Condition 1 Acetate pH 4” value was “− (denotes lack of solubility at the given condition, as UV absorbance at 340 nm exceeds 0.1 AU and/or it is visibly turbid or contains particles.)”; the “Solubility, Condition 2 Acetate pH 5” value is “− (denotes lack of solubility at the given condition, as UV absorbance at 340 nm exceeds 0.1 AU and/or it is visibly turbid or contains particles.)”; the “Solubility, Condition 3 Phosphate pH 6” value is on record as “− (denotes lack of solubility at the given condition, as UV absorbance at 340 nm exceeds 0.1 AU and/or it is visibly turbid or contains particles.)”; the “Solubility, Condition 4 Phosphate pH 7” value is “+ (denotes solubility at the given condition, as determined by UV absorbance being less than 0.1 AU at 340 nm and the sample being clear when manually inspected.)”. The “Solubility, Condition 5 Phosphate pH 7.5” value in series [1] is “+ (denotes solubility at the given condition, as determined by UV absorbance being less than 0.1 AU at 340 nm and the sample being clear when manually inspected.)”. For the same compound, in series [2], the IC50 was under 100 nM.
Consider `CC[C@H](C)[C@@H]1NC(=O)[C@@H](NC(=O)[C@H](Cc2ccccc2)NC(=O)[C@H](C)NC(=O)[C@H](CO)NC(=O)CNC(=O)[C@H](CCC(=O)O)NC(C)=O)CSSC[C@@H](C(=O)N[C@H](C(=O)N[C@@H](CCC(=O)O)C(N)=O)[C@@H](C)O)NC(=O)[C@H](CCCNC(=N)N)NC(=O)[C@H](Cc2c[nH]cn2)NC(=O)[C@H](CCC(=O)O)NC(=O)CNC(=O)[C@H](Cc2c[nH]c3ccccc23)NC(=O)[C@H](CC(=O)O)NC(=O)[C@H](CCC(N)=O)NC(=O)[C@H](Cc2cn(C)c3ccccc23)NC1=O` [Compound 57] (Ac-EGSAFCI[Trp(1-Me)]QDWGEHRCTE-NH2; disulfide 6-16), for which, in series [1], the “Solubility, Condition 1 Acetate pH 4” value is given as “− (denotes lack of solubility at the given condition, as UV absorbance at 340 nm exceeds 0.1 AU and/or it is visibly turbid or contains particles.)”; the “Solubility, Condition 2 Acetate pH 5” value was “− (denotes lack of solubility at the given condition, as UV absorbance at 340 nm exceeds 0.1 AU and/or it is visibly turbid or contains particles.)”; the “Solubility, Condition 3 Phosphate pH 6” value is “+ (denotes solubility at the given condition, as determined by UV absorbance being less than 0.1 AU at 340 nm and the sample being clear when manually inspected.)”; the “Solubility, Condition 4 Phosphate pH 7” value was “+ (denotes solubility at the given condition, as determined by UV absorbance being less than 0.1 AU at 340 nm and the sample being clear when manually inspected.)”. Further, the “Solubility, Condition 5 Phosphate pH 7.5” value in series [1] was “+ (denotes solubility at the given condition, as determined by UV absorbance being less than 0.1 AU at 340 nm and the sample being clear when manually inspected.)”. In addition, the IC50 in series [2] is under 100 nM.
As to `CC[C@H](C)[C@@H]1NC(=O)[C@@H](NC(=O)[C@H](Cc2ccc(O)cc2)NC(C)=O)CSSC[C@@H](C(=O)N[C@H](C(=O)NCC(=O)N[C@@H](C)C(=O)N[C@@H](CCC(=O)O)C(=O)N[C@@H](CO)C(N)=O)[C@@H](C)O)NC(=O)[C@H](CCCNC(=N)N)NC(=O)[C@H](Cc2c[nH]cn2)NC(=O)[C@H](CCC(=O)O)NC(=O)CNC(=O)[C@H](Cc2c[nH]c3ccccc23)NC(=O)[C@H](CC(=O)O)NC(=O)[C@H](CCC(N)=O)NC(=O)[C@H](Cc2ccc3ccccc3c2)NC1=O` [Compound 65] (Ac-YCI[2Nal]QDWGEHRCTGAES-NH2; disulfide 2-12), in series [1], the “Solubility, Condition 1 Acetate pH 4” value is listed as “− (denotes lack of solubility at the given condition, as UV absorbance at 340 nm exceeds 0.1 AU and/or it is visibly turbid or contains particles.)”; the “Solubility, Condition 2 Acetate pH 5” value is recorded as “− (denotes lack of solubility at the given condition, as UV absorbance at 340 nm exceeds 0.1 AU and/or it is visibly turbid or contains particles.)”; the “Solubility, Condition 3 Phosphate pH 6” value was “+ (denotes solubility at the given condition, as determined by UV absorbance being less than 0.1 AU at 340 nm and the sample being clear when manually inspected.)”; the “Solubility, Condition 4 Phosphate pH 7” value is “+ (denotes solubility at the given condition, as determined by UV absorbance being less than 0.1 AU at 340 nm and the sample being clear when manually inspected.)”. Besides, the “Solubility, Condition 5 Phosphate pH 7.5” value in series [1] was “+ (denotes solubility at the given condition, as determined by UV absorbance being less than 0.1 AU at 340 nm and the sample being clear when manually inspected.)”. For the same compound, the IC50 in series [2] was under 100 nM.
For `CC[C@H](C)[C@@H]1NC(=O)[C@@H](NC(=O)[C@H](Cc2ccccc2)NC(=O)[C@H](CCC(=O)O)NC(=O)[C@H](CO)NC(C)=O)CSSC[C@@H](C(=O)N(C)CC(=O)N[C@@H](CCC(=O)O)C(N)=O)NC(=O)[C@H](CCCNC(=N)N)NC(=O)[C@H](Cc2c[nH]cn2)NC(=O)[C@H](CCC(=O)O)NC(=O)CN(C)C(=O)[C@H](Cc2c[nH]c3ccccc23)NC(=O)[C@H](CC(=O)O)NC(=O)[C@H](CCC(N)=O)NC(=O)[C@H](Cc2cn(C)c3ccccc23)NC1=O` [Compound 79, Ac-SEFC(1)I[1-Me-Trp]QDW[Sar]EHRC(1)[Sar]E-NH2] (Ac-SEFCI[Trp(1-Me)]QDW[Sar]EHRC[Sar]E-NH2; disulfide 4-14), in series [1], the “Solubility, Condition 1 Acetate pH 4” value is given as “− (denotes lack of solubility at the given condition, as UV absorbance at 340 nm exceeds 0.1 AU and/or it is visibly turbid or contains particles.)”; the “Solubility, Condition 2 Acetate pH 5” value is reported as “− (denotes lack of solubility at the given condition, as UV absorbance at 340 nm exceeds 0.1 AU and/or it is visibly turbid or contains particles.)”; the “Solubility, Condition 3 Phosphate pH 6” value is “+ (denotes solubility at the given condition, as determined by UV absorbance being less than 0.1 AU at 340 nm and the sample being clear when manually inspected.)”; the “Solubility, Condition 4 Phosphate pH 7” value is “+ (denotes solubility at the given condition, as determined by UV absorbance being less than 0.1 AU at 340 nm and the sample being clear when manually inspected.)”. For the same compound, the “Solubility, Condition 5 Phosphate pH 7.5” value in series [1] is “+ (denotes solubility at the given condition, as determined by UV absorbance being less than 0.1 AU at 340 nm and the sample being clear when manually inspected.)”. Besides, the IC50 in series [2] was under 100 nM.
